From EP1662258A1, “A substrate free in vitro protein kinase assay” (Sirenade Pharmaceuticals AG, priority 2004, dated 2006)
Where “and” joins values, the source holds several entries; their conditions need not be identical. Identical values can stand only once. Entries after “also recorded” stand apart in the source; their conditions may differ.

Columns and labels:
[1] = biological target: Src kinase Srcv2 (Homo sapiens, UniProt P12931); assay: Src protein tyrosine kinase auto-phosphorylation (autoactivation) assay with Srcv2
Experimental: After mixing the kinase with the compound the final DMSO concentration was 40%. Then, 190 µl of the preincubated compound/kinase solution are transfered to 96 well Ni-NTA plates (Ni-NTA HisSorb™ plates, white, Qiagen (cat.No.35081) and incubated for 30 min at room temperature on a rotation shaker at 300 rpm to allow binding of the kinase to the wells. The kinase/compound solution containing unbound kinase and compound is carefully replaced by 200 µl of DMSO free initiation buffer (50 mM Tris/HCl, pH 7.2, 10 mM MgCl2, 100 µM ATP) per well and the plate is incubated for 20 min at room temperature on a rotation shaker at 300 rpm.
The initiation buffer is then removed carefully and the plate is washed two times with PBS-Tween (PBS-T) buffer (50 mM potassium phosphate, pH 7.2, 150 mM NaCl, 0.05 % Tween 20) (200 µl per well per washing step).
The antibody solution is removed carefully and the plate is washed three times with 200 µl PBS-T buffer (200 µl per well per washing step).
• 2.7.1 The assay was used for qualitative and quantitative analysis of different compound classes. […] The assay was performed either manually or in a semiautomatic approach using the EP3 robotor (Perkin Elmer) for automated pipetting steps. […] Solution was removed and 200 µl assay buffer, containing 100µM ATP was added and the plate was incubated for 30 min at RT on a rotation shaker. Solution was removed and wells were washed 3 times with 200µl PBST. Afterwards 200 µl 1:2000 diluted anti p-Tyr antibody in PBST-0.5% BSA was added and the plate was incubated for 30 min at RT on a rotation shaker. The degree of src kinase auto-phosphorylation was detected with an anti p-Tyr-antibody as described above. […] The DMSO concentration was 30 %. […] The measurements were carried out either as unicates or as triplicates. The standard deviation is shown by error bars.
In order to get information about the quality of the assay the z' was determined for the assay. For determination of the maximal counts src v2 in the absence of inhibitor was used.

[2] = biological target: Src kinase (Srcv1) (Homo sapiens, UniProt P12931); assay: Src protein tyrosine kinase auto-phosphorylation (autoactivation) assay, Srcv1 immobilised on Ni-NTA plates, anti p-Tyr chemoluminiscence readout
Experimental: The assay will be performed as a solid phase assay, which can be done by immobilisation of the kinase (Srcv1) via its His6-tag on Ni-NTA coated 96 wells (Qiagen), as this assay system allows washing steps. Thus it was evaluated, whether it is possible to detect auto-phosphorylated src kinase, immobilized on Ni-NTA coated plates with an HRP labeled anti p-Tyr antibody. Therefore, Src kinase (1.0µM) was incubated for 30 min either in the presence and absence of 50 µM ATP at RT in incubation buffer (50 mM Tris/HCl, pH 7.2, 10 mM MgCl2). Afterwards the solution was diluted to 1.0, 0.5, 0.25 and 0.0 µM final src protein concentration in PBS and incubated for 30 min (V= 200µl) on NiNTA coated plates at RT on a rotation shaker (300 rpm). After removal of the supernatant and 3 times washing with 200 µl PBS-T, immobilized, phosphorylated src kinase was detected. Therefore, a solution of HRP-labeled anti p-Tyr antibody (Abcam) (200 µl, 1:2000 diluted in PBST-0.5% BSA) was added to the wells and the plate was incubated for 30 min at RT °C, 300 rpm. After removal of the supernatant and 3 times washing with 200 µl PBS-T, chemoluminiscence development buffer was added (200 µl of a 1:1 mixture of ECL substrate, Amersham) and chemoluminiscence signal was quantified using Wallac1420 Multilabel counter (Victor^2).
Afterwards 100 µl assay buffer containing 100 µM ATP was added (except for the negative control which was incubated with 100 µl assay buffer without ATP) and the mixture was transfered to Ni-NTA coated plates and further incubated for 20 min at RT on a rotation shaker (300 rpm). The degree of src kinase auto-phosphorylation was detected with an anti p-Tyr-antibody as described above (see Figure 3a).
The solution was transfered on NiNTA plates and incubated for 30 min with 100 µl assay buffer containing 100 µM ATP for the auto-phosphorylation of src. The degree of src kinase auto-phosphorylation was detected with an anti p-Tyr-antibody as described above (see Figure 3b).

SMILES: Cc1ccc(-c2nn(C(C)(C)C)c3ncnc(N)c23)cc1 [PP1]
- chemoluminiscence signal (counts), mean, first series [1]: 5948
- chemoluminiscence signal (counts), mean, second series [1]: 5700
- chemoluminiscence signal (counts), single values, first series [1]: 5816 and 5922 and 5781 and 6275
- chemoluminiscence signal (counts), single values, second series [1]: 6060 and 5465 and 5523 and 5752
- inhibition of Srcv2 kinase (dose response curves, in words) [1]: showed inhibition
- inhibition of auto-phosphorylation of src kinase (in words) ([2]; 100 µl src kinase (1.0 µM), compound 1.25 mM, 30% DMSO, 100 µM ATP, Figure 3b): potently inhibits; also recorded: strongest inhibition
- inhibition of the kinase activity (in words) ([2]; Src kinase (100µl, 2.0 µM), PP1 1.25 mM, 10% DMSO, ATP 100 µM, Figure 3A): clear inhibition
